Data as given in patent US9421249B2, “Methods to activate or block the HLA-E/Qa-1 restricted CD8+ T cell regulatory pathway to treat immunological disease” (THE TRUSTEES OF COLUMBIA UNIVERSITY IN THE CITY OF NEW YORK, priority 2007, dated 2016).
Where no end group is shown, it is not given here.

How the values were obtained:
Qa-1 [1] = experiment: Qa-1 binding assay (stabilization of Qa-1a surface expression on 3F4 transfectants, FACS); set-up: species or system murine; conditions: 3F4 cells, peptide 50 μM, 26° C., approximately 18 hours
Description: The capacity of the peptides to bind to Qa-1 was first assessed by their ability to stabilize Qa-1 surface expression on 3F4 cells. The 3F4 cells were incubated at 26° C. for approximately 18 hours with Hsp60sp or Qdm peptides and a Qa-1 non-binding peptide HEL 74-96 served as control peptide (12, 14 and 17). As shown by FIG. 6, the binding of exogenous peptide at 26° C. causes a shift in the intensity of Qa-1a surface staining analyzed by FACS.
Selected Qa-1a-PcDNA3.1 positive transfectants detected by RT-PCR were assayed for their Qa-1 surface expression after loading with known Qa-1 binding peptides. In brief, Qa-1a transfectants were incubated at 26° C. for approximately 18 hours with Hsp60sp or Qdm peptides (10, 12 and 17). The surface expression of Qa-1a was assessed by staining with anti-Qa-1a sera followed by Phycoerythorine (PE)-goat anti-mouse Ig, analyzed on a FACScan flow cytometer and CellQuest™ software (Becton Dickinson, Mountain View, Calif.)(1). All peptides were used at 50 μM unless specifically indicated.

CD94/NKG2A [2] = experiment: NK assay with peptide-loaded 3F4 cells; type: cell-based; conditions: 3F4 cells loaded with peptide at 26° C. overnight; mouse NK cells 2 hrs
Excerpt: Since a significant number of murine CD8+ T cells express CD94/NKG2A, it was investigated whether Qa-1/Hsp60sp generated in activated murine T cells is capable of interacting with CD94/NKG2A in a functional NK assay. […] This is also compatible with the notion that two types of Qa-1/HLA-E binding peptides could be distinguished by their ability of interact with CD94/NKG2A in both humans (14) and mice.
NK cell lines are routinely established from B10PL mice (24). Unlabeled 3F4 cells were loaded with test peptides at 26° C. overnight and mixed with an equal number of CFSE labeled human EBV transformed LCL cells which are not susceptible to the killing by mouse NK cells. Graded numbers of mouse NK cells were added to the mixture of 3F4 and LCL cells and further incubated at 37° C. for 2 hrs. 3F4 cells, which were not loaded with peptides or loaded with non-Qa-1 binding peptides served as controls. The cell mixtures were then stained with anti mouse H-2^U mAb 3-8-3P-PE to distinguish NK cells from target cells. The change in the ratio of 3F4 to LCL cells in the presence or absence of NK cells in each group detected by FACS (1) reflects the specific NK killing: % specific killing={[the killing ratio in control wells (without NK)−the killing ratio in experimental wells (with NK)]/the killing ratio of control wells}×100%.

Qa-1/HLA-E = conditions: cited from earlier work
EAE in B10PL mice = experiment: Peptide vaccination in EAE model; type: in vivo; conditions: B10PL mice immunized subcutaneously with antigen emulsified with IFA; compared with IFA alone
Excerpt: B10PL mice were vaccinated with either 1-9NacMBP, a MHC Class II biding peptide derived from MBP or p277, a MHC Class II biding peptide derived from Hsp60. In this regard, it is well known that 1-9NacMBP is a pathogenic peptide in B10PL mice and p277 may be involved in the pathogenesis of T1D in certain mouse strains (174) but irrelevant to EAE.

T1D in NOD mice = experiment: Peptide vaccination in spontaneous T1D model; conditions: NOD mice immunized subcutaneously with antigen emulsified with IFA; compared with IFA alone
Description: In the standard protocol used throughout this study female 8-10 weeks old B10PL or 3-4 weeks old NOD mice were immunized subcutaneously with 1-9Nac MBP or p277 emulsified with IFA at 100 uM/mouse as described. EAE was induced at least one week after peptide vaccination. CD8+ T cells were purified from spleens and draining lymph nodes of peptide vaccination protected EAE/B10PL mice or T1D/NOD mice by positive selection with CD8 MACS magnetic beads (Miltenyibiotec, Inc. Auburn Calif.). The purity of CD8+ T cells is routinely >95%.
The effect of peptide vaccination or adoptive transfer of CD8+ T cells was evaluated by assessing the clinical EAE (181) or T1D in the recipient mice.

Qa-1 [3] = experiment: Peptide competition assay (functional NK assay); type: cell-based, murine; conditions: Qdm 20 μM; competing peptide 50, 100, 200 μM; 18 hrs at 26° C.; E/T ratio 2:1
Description: The ability of the Hsp60sp to compete with Qdm for binding to Qa-1 was further tested in a functional NK assay.
Competing peptides (Hsp60sp or control non-Qa-1 binding peptide) at 50, 100, 200 μM were added to the 3F4 cells, together with 20 μM Qdm for 18 hrs at 26° C. (14). Equal numbers of CFSE labeled LCL cells were mixed with 3F4 cells and NK cells were then added into the mixture of peptide loaded 3F4 cells and LCL cells. The percent NK killing of 3F4 cells was evaluated.

[4] = test system: Qa-1 dependent CD8+ T cells; experiment: CD8+ T cell inhibition assay, CD8+ T cells from EAE recovered mice; type: cell-based; conditions: CD8+ T cells isolated from EAE recovered B10PL mice
Excerpt: It was next tested if Qa-1/Hsp60sp is the target for the regulatory CD8+ T cells. […] The Qa-1 expressing 3F4 cell was used as the Qa-1 peptide presenting cell to test if Hsp60sp is preferentially recognized by the regulatory CD8+ T cells in a CD8+ T cell inhibition assay. The 1-9NacMBP (myelin basic protein) specific, intermediate avidity clone 1AE10, capable of inducing EAE in vivo (8, 19) served as a positive control, and a non-encephalitogenic, low avidity clone 4D10 as well as 3F4 loaded with control non-Qa-1 binding peptide or Qdm served as negative controls. […] Thus, Hsp60sp is, indeed, a specific target recognized by the CD8+ T cells, when presented by Qa-1.
3F4 cells were passively loaded with peptides overnight at 26° C. Equal number of unlabeled 3F4 cells loaded with peptides and CFSE labeled 3F4 cells that are not loaded with peptide were mixed and a graded number of CD8+ T cells were added to the targets. […] The ratio between peptide-loaded (non-CFSE-labeled) 3F4 cells and non-loaded (CFSE labeled) 3F4 cells in the presence of CD8+ T cells was determined as % of specific inhibition: {[the ratio of loaded to unloaded 3F4 cells in control cultures (without CD8+ T cells)−the ratio in experimental cultures (with CD8+ T cells)]/the ratio in control cultures}×100% (1).

[5] = test system: Qa-1 restricted CD8+ T cells; experiment: CD8+ T cell inhibition assay, CD8+ T cells from peptide vaccination protected mice; type: cell-based
Excerpt: To test this hypothesis, a Qa-1a expressing cell 3F4 was used as peptide-presenting cell to determine the specificity of the CD8+ T cells isolated from either 1-9Nac MBP or p277 vaccination protected B10PL and NOD mice.
Physiological target T cells, the intermediate avidity 1-9Nac MBP specific clone 1AE10 from B10PL mice and p277 specific clone 15A6 from NOD mice served as positive controls, and low avidity MBP specific clone 4D10 and p277 specific clone 1304 served as negative control to assess the function and the specificity of the CD8+ T cells. It is noted that “quantitative” but not “qualitative” differences between the Qa-1/Hsp60sp versus Qa-1/Qdm is a function of avidity of T cell activation which determines their susceptibility to the down-regulation by the CD8+ T.
3F4 cells were passively loaded with peptides overnight at 26° C. Equal number of unlabeled 3F4 cells loaded with peptides and CFSE labeled 3F4 cells that are not loaded with peptide were mixed and a graded number of CD8+ T cells were added to the targets. […] 4 days later, the cell mixtures were stained with anti-mouse CD8-PE mAb to distinguish CD8+ T cells from target cells and the CD8+ T cells were gated out during the analysis when the ratio between two types of targets were calculated. […]

[6] = test system: HLA-E restricted CD8+ T cells; experiment: CD8+ T cell inhibition CFSE assay on HLA-E transfectants loaded with peptide; type: cell-based, human
Excerpt: Data obtained in human studies support the concept established in the murine studies.
To test if HLA-E restricted CD8+ T cells also play a similar role in the control of human T1D, the function of CD8+ T cells in freshly isolated PBMC from T1D patients was first tested. For this purpose two assays were employed. The first is a standard T cell proliferation assay measuring self non-self discrimination, comparing the overall immune responses of human PBMC to self versus foreign antigens in the presence or absence of CD8+ T cells. Thus, intact PBMC populations or purified CD4+ T cells were cultured with varying doses of the self-antigen GAD or foreign antigen TT. Comparing PBMC with purified CD4+ T cells could not alone definitively pinpoint the function of the CD8+ T cells contained in the PBMC. […] This is the case in testing the function of CD8+ T cells in T1D patients combined with the CD8+ T cell inhibition CFSE assay, which can be applied as a relative simple and feasible clinical test. […] We then proceeded to further identify the specificity of the CD8+ T cells. Thus, purified CD8+ T cells from T1D patients were tested on HLA-E transfectant H3B2 cells loaded with Hsp60sp. H3B2 loaded with B7sp or non-HLA-E binding peptide served as controls.
CD8+ T cells were in vitro primed with DCs loaded with either Hsp60sp [CD8(H)], or B7sp [CD8(B)] and tested for their specificity and the function of self-nonself discrimination using the two assays described above. […] To verify the restored function of the CD8+ T cells, these CD8+ T cell lines were also tested in a CFSE assay on HLA-E transfectant H3B2 cells loaded with Hsp60sp. A CD8(B) line from each patient served as control. […] This phenomenon has been observed in about 60% of the 10 total T1D patients tested to date.

CD94/NKG2A [7] = target: CD94/NKG2A (Homo sapiens, UniProt P26715+Q13241); conditions: cited from earlier work
Chain of CD94/NKG2A (Homo sapiens, UniProt P26715+Q13241) (Q13241 whole entry): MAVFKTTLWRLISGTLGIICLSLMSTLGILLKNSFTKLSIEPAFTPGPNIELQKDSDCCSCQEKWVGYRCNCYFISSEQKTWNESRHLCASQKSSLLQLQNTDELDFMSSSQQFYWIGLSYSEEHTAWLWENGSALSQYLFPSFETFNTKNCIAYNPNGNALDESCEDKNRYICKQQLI
Chain of CD94/NKG2A (Homo sapiens, UniProt P26715+Q13241) (P26715 whole entry): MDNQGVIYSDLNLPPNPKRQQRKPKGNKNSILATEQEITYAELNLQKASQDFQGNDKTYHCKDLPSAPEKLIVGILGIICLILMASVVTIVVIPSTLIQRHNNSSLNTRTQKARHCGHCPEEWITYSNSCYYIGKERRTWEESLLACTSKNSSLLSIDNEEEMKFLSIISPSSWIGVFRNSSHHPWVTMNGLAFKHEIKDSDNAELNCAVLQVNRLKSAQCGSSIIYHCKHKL

AMAPRTLLL [Qdm]
Binding to Qa-1 (shift in intensity of Qa-1a surface staining) (Qa-1 [1]): could bind to Qa-1
Inhibition of NK killing of peptide-loaded 3F4 cells (CD94/NKG2A [2]): resistant to the NK killing
Binding to Qa-1 (Qa-1/HLA-E): binds with high affinity

AcASGLAPSGA (Ac-ASGLAPSGA; listed as Mus musculus) [1-9Nac MBP]
Protection from subsequently induced EAE (EAE in B10PL mice): equally effectively protected from EAE
Protection from spontaneously developed T1D (T1D in NOD mice): equally protected NOD mice from spontaneously developed T1D

HEL: conventional foreign antigen Hen Egg Lysozyme
Protection from subsequently induced EAE (EAE in B10PL mice): CD8+ T cell dependent protection from either EAE or T1D
Protection from spontaneously developed T1D (T1D in NOD mice): CD8+ T cell dependent protection from either EAE or T1D

QMRPVSRAL (listed as Mus musculus) [Hsp60sp]
Binding to Qa-1 (shift in intensity of Qa-1a surface staining) (Qa-1 [1]): could bind to Qa-1
Inhibition of NK killing of peptide-loaded 3F4 cells (CD94/NKG2A [2]): does not inhibit NK killing
Competition with Qdm for binding to Qa-1 (abrogation of Qdm protection from NK killing) (Qa-1 [3]): abrogated the protection of NK killing of 3F4 by Qdm in a dose dependent manner
Susceptibility of peptide-loaded 3F4 cells to down-regulation by CD8+ T cells [4]: susceptible to the down-regulation by the CD8+ T cells
Down-regulation of peptide-sensitized 3F4 cells by CD8+ T cells ([5]; CD8+ T cells from 1-9Nac MBP or p277 vaccination protected B10PL mice): efficiently down-regulated
Down-regulation of peptide-sensitized 3F4 cells by CD8+ T cells ([5]; CD8+ T cells from p277 or 1-9Nac MBP vaccination protected NOD mice): efficiently down-regulated
Inhibition of H3B2 cells loaded with peptide by CD8(H) ([6]; CD8(H) line from a T1D patient, after in vitro priming with DCs loaded with Hsp60sp): specifically inhibited
Inhibition of H3B2 cells loaded with peptide by CD8+ T cells ([6]; CD8+ T cells from freshly isolated PBMC of T1D patients (11 total patients tested)): failed to specifically inhibit
Inhibition of H3B2 cells loaded with peptide by CD8+ T cells ([6]; CD8+ T cells from normal controls): specifically inhibited
Inhibition of HLA-E transfected clones loaded with peptide by CD8(H) ([6]; CD8+ T cells primed in vitro with Hsp60sp loaded dendritic cells): specifically inhibit
Competition with B7sp for occupancy of HLA-E (Qa-1/HLA-E; human studies): capable of competing with B7sp peptide
Interaction of HLA-E/peptide complex with CD94/NKG2A (CD94/NKG2A [7]): does not interact with CD94/NKG2A

VLGGGVALLRVIPALDSLTPANED [p277]
Protection from subsequently induced EAE (EAE in B10PL mice): equally effectively protected from EAE
Protection from spontaneously developed T1D (T1D in NOD mice): completely protected NOD mice from spontaneously developed T1D up to 35 week's of age
